Tested on: histone deacetylases
Assay: Relief of repressed LacZ transgenes in cleavage stage embryos by inhibitors of histone deacetylases
Format: cell-based, mouse
Conditions: for release from repression of LacZ transgenes in treated embryos: DCR6 and DCR7 2-cell embryos, NaB 2.5 mM or TSA 66 nM for 24 h; for proportion of β-gal+ embryos after NaB treatment: repressed paternal transgene
Experimental: One-cell embryos from different lines, carrying a transgene of maternal (A) or paternal (B) origin were recovered at 24 hphCG and allowed to develop in the absence (control) or presence of sodium butyrate (NaB; 2.5 mM) or trichostatin A (TSA; 66 nM) for 24 h. Aphidicolin, an inhibitor of DNA polymerases was used alone (Aph; 2 μg/ml) or in combination with sodium butyrate (Aph+NaB).
It is becoming more and more evident that at least part of the transcriptional repression dependent on methylated CpG islands is mediated by histone deacetylation. […] To test whether this mechanism could be responsible for the non-permissive transcriptional state established during gametogenesis and inherited by the embryo, cleavage stage embryos were treated with the deacetylase inhibitors, sodium butyrate (NaB) and the trichostatin A (TSA), two inhibitors of histone deacetylases (Yoshida et al., 1995).

Structure (SMILES)	release from repression of LacZ transgenes in treated embryos	proportion of β-gal+ embryos after NaB treatment (DCR1 line, 3% β-gal+ in untreated embryos) [%]	proportion of β-gal+ embryos after NaB treatment (DCR3 line, 18% β-gal+ in untreated embryos) [%]	proportion of β-gal+ embryos after NaB treatment (DCR5 line, 0% β-gal+ in untreated embryos) [%]
CC(/C=C/C(=O)NO)=C\[C@@H](C)C(=O)c1ccc(N(C)C)cc1 [TSA, trichostatin A]	release from repression	–	–	–
CCCC(=O)[O-].[Na+] [NaB, sodium butyrate]	release from repression	70	100	10

From patent publication US20040097439A9, “Isolated polynucleotides having a reduced or an increased content of epigenetic control motifs and uses thereof” (priority 1999, published 2004)
